Laboratory results as given in patent US20060135501A1, “Piperidinyl-thiazole carboxylic acid derivatives as angiogenesis inhibitors” (priority 2002, published 2006).

What was measured:
[1] = biological target: T1, rhVEGF165-biotin (Homo sapiens, UniProt P15692); test: VEGF-Binding ELISA (dose-response); details: Table 6
T1 sequence (P15692 27-191 isoform P15692-4): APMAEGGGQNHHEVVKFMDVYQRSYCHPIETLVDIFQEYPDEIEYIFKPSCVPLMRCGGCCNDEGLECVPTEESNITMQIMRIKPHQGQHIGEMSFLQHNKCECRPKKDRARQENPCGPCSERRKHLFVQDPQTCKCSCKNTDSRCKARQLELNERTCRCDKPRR
Method: The potency of test substances as a VEGF-neutralising moiety is measured in an ELISA format. This assay measures the solution-phase interaction between rhVEGF165-biotin and test sample. Unbound VEGF165-biotin is then immobilised on a solid-phase anti-hVEGF antibody (R&D systems MAB293). The biotin signal is detected with streptavidin-alkaline phosphatase, which gives a colorimetric signal when incubated with p-nitrophenyl phosphate. Plates are read in a spectrophotometer at 405 nm.
Any test compound that binds to VEGF165-biotin and prevents it from binding to the antibody will lower the color signal and be recognized as a “hit”. Hits were defined as compounds that show>60% inhibition.
VEGF165-biotin+assay buffer ? 0% inhibition
Soluble VEGF receptor (sflt @ 4 nM) ? 70% inhibition
The primary screening of all library compounds was done at a compound concentration of 50 μM, followed by measuring dose-response effects of “hits” between 0.05 and 500 μM for the calculation of IC50 values.
The compounds were dissolved in DMSO and it was shown that the solvent has no effect on the assay at this concentration.

[2] = test system: human umbilical vein endothelial cells (HUVEC); test: HUVEC proliferation assay co-stimulated with rhVEGF; format: cell-based; details: Homo sapiens, HUVEC, Table 6
Method: The HUVEC assay measures the potency of test substances to inhibit in vitro proliferation of human umbilical vein endothelial cells (HUVEC) when co-stimulated with recombinant human vascular endothelial growth factor (rhVEGF).
HUVEC are grown under defined conditions (EGM-2 medium, 37° C., 5% CO2 and 95% humidity). They are seeded into 48-well plates using EBM medium with only 1% serum and incubated for 24 h. This is to ensure that cells are not stimulated before treatment with VEGF and test compound.
Test compounds are diluted in medium to concentrations between 0.05 and 50 μM and dosed together with VEGF165 at 12 ng/ml. This VEGF concentration was determined in a VEGF-dose-response curve to be just sub-optimal for maximum cell proliferation. Cells are incubated for 48 h at above conditions and viable cell density is measured using a tetrazolium compound (MTS). Viable cells reduce MTS into a soluble formazan product, which has an absorbance maximum at 490 nm. The absorbance is directly proportional to cell density.
EBM+1% serum (no VEGF) ? Minimum or Blank
EBM+1% serum (12 ng/ml) ? Maximum

[3] = biological target: T2, EGF binding to human A431 cells (Homo sapiens, UniProt P00533); test: Epidermal Growth Factor (EGF) radioligand binding assay
T2 construct: endogenous in cells; host or cells: A431
Method: (§1) Compounds 1633-00382 and 1633-02177 were tested for selectivity by determining their effect on the following assays: • Basic Fibroblast Growth Factor (FGF)-Induced cell proliferation (Gospodarowicz D, Brown K D, Birdwell C R & Zetter B R (1978) J. Cell. Biol. 77: 774-788); • Epidermal Growth Factor (EGF) radioligand binding assay (Dittadi R, Gion M, Brazzale A., Bruscagnin G. (1990) Clin. Chem. 36: 849-854; Massague J (1983) J. Biol. Chem. 258:13614-13620); and • Platelet-Derived Growth Factor (PDGF) radioligand binding assay (Williams L T, Tremble P M, Lavin M F & Sunday M E (1984) J. Biol. Chem. 259 5287-5294

[4] = test system: PDGF binding to mouse 3T3 cells; test: Platelet-Derived Growth Factor (PDGF) radioligand binding assay
Method: as §1

[5] = test system: basic FGF; test: Basic Fibroblast Growth Factor (FGF)-induced cell proliferation; format: cell-based
Method: as §1

[6] = ***re-tested in full-concentration response assays

T2 sequence (P00533 25-1210): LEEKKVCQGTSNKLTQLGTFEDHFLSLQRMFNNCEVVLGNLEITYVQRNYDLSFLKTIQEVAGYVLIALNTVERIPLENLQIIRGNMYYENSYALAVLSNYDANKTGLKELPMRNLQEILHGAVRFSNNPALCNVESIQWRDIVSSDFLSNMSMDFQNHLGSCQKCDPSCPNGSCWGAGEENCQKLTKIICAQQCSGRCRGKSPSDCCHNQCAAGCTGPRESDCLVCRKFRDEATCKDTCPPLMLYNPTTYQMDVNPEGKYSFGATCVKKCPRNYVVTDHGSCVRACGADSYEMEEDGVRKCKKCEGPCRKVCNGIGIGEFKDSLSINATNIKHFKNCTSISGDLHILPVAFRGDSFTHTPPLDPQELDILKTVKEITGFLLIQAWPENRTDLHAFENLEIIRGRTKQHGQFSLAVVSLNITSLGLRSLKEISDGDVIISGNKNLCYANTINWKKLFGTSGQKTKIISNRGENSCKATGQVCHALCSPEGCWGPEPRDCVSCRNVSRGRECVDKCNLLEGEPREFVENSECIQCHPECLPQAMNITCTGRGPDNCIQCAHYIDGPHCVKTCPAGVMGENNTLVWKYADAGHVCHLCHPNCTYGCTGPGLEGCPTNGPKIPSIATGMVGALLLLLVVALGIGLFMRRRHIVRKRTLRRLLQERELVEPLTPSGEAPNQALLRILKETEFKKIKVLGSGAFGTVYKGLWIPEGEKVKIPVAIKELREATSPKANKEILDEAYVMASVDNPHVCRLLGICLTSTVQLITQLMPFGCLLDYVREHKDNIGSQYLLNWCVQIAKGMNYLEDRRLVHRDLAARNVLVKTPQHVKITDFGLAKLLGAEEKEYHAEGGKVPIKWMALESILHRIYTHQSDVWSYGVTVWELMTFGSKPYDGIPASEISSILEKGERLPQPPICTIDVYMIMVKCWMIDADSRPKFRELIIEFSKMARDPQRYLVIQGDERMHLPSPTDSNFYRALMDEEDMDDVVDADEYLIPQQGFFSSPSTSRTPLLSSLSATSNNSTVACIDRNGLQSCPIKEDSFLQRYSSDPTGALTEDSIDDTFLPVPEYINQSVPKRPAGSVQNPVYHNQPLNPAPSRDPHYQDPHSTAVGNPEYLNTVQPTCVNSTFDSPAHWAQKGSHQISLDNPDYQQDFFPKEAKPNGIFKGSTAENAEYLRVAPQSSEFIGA

Row | IC50 [1, 6] [µM] | IC50 ([1]; **tested after re-synthesised) [µM] | IC50 ([1]; *re-test 3 months later) [µM] | IC50 ([1]; first test (unmarked value)) [µM] | inhibition of EGF binding [3] | Compound | IC50 [2, 6] [µM] | IC50 ([2]; **tested after re-synthesised) [µM] | IC50 ([2]; *re-test 3 months later) [µM] | IC50 ([2]; first test (unmarked value)) [µM] | inhibition of PDGF binding [4] | IC50 ([5]; Fibroblast, significant anti-proliferative activity, estimated value, read-out: anti-proliferative activity against basic FGF, estimated value) [µM] | cytotoxicity ([5]; at 10 μM)
1 | 1 | 4 | 3.49 | 0.655 | did not inhibit | NC(=O)c1ccc(Cl)c(NC(=O)c2csc(C3CCN(C(=O)CSc4ncccn4)CC3)n2)c1 [Compound 1633-00382] | 12 | 20 | 16 | 0.938 | did not inhibit | – | –
2 | – | 18 | – | 12 | did not inhibit | CN(C)c1cccc(C(=O)N2CCC(c3nc(C(=O)Nc4cc(CC(N)=O)ccc4Cl)cs3)CC2)c1 [Compound 1633-02177] | – | 0.478 | – | 0.712 | did not inhibit | 0.406 | moderate but not significant cytotoxicity
